In patent publication US20220227761A1, “OXOACRIDINYL ACETIC ACID DERIVATIVES AND METHODS OF USE” (STINGTHERA, INC., priority 2019, published 2022):

Columns and labels:
[1] = target: hSTING-R232 (aa140-379) (Homo sapiens, UniProt Q86WV6, H232R); assay: STING differential scanning fluorimetry (DSF) assay, hSTING WT; details: shift in melting temperature apo vs ligand-bound
Description: A STING DSF assay was performed to determine protein thermostability shift in response to small molecule ligand binding. A STING thermnostability shift assay based on differential scanning fluorimetry was used to measure (1) the net shift in melting temperature (ΔTm) between the apo and ligand-bound states of the STING protein and (2) the concentration of the thermal denaturation transition (EC50) as a surrogate measure of binding affinity (Kd). […] Protein in assay buffer was transferred to a 384 well plate and incubated with the hydrophobic fluorescent dye SYBR Orange. A temperature ramp was applied to the plate and the resulting dye fluorescence was plotted as a function of temperature. The first derivative of this function (dF/dT) was then used to extrapolate the melting temperature of the protein at various concentrations of compound and determine the thermal denaturation profile of a protein/compound complex.
5 μM purified Target STING Protein • 3. 8 μM Sypro Orange Dye • 4. Buffer: 100 mM NaCl, 30 mM HEPES, pH 7.5 • 5. Thermal Ramp: 0.5° C./min • 6. <1% DMSO • 7. 11 point, 2 fold dilution, duplicate, 300 μM high concentrations • 8.

[2] = target: T1, mouse STING protein (139-328) (Mus musculus, UniProt Q3TBT3); assay: Radiometric filtration binding competition assay (FBA), mSTING
T1 sequence (Q3TBT3 139-328): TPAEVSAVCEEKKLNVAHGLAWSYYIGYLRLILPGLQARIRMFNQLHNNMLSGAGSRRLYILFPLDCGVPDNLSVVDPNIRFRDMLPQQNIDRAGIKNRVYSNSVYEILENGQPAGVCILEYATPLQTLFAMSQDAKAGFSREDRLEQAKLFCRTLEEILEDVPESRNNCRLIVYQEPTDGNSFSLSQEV

[3] = target: human STING protein (140-379), WT (Homo sapiens, UniProt Q86WV6, H232R); assay: Radiometric filtration binding competition assay (FBA), hSTING-WT; details: WT-hSWAT IC50 (μM), WT_FBA_HIS-SUMO-hSWAT; wild-type human STING; competition with [H3] 2′3′cGAMP
[4] = test system: STING protein; IRF/IFN signaling in THP-1 R232 cells; assay: Cell based reporter assay, THP-1 R232 IRF-luc; details: Homo sapiens, THP1-dual-KI R232 cells, IRF luciferase reporter; for Emax: maximum measured activity, read-out: THP 1-dual-KI R232_IRF(Luciferase)_Activity Maximum measured (%); for IC50: read-out: THP 1-dual-KI R232_IRF(Luciferase) IC50
Description: Cell reporter assays were developed to measure the ability of compounds of the application to activate the STING protein and activate both IRF/IFN and the NFkB signaling pathways in the myeloid derived cell line THP-1, which is commercially available from several suppliers. Briefly, THP-1 monocytes were transfected and selected for stable integration of 2 reporter constructs. Clones incorporating stably integrated vectors were further selected by antibiotic resistance to blastocidin and zeocin. The reporter constructs included: (1) firefly luciferase reporter gene under the control of an ISG54 promoter fused to five interferon (IFN)-stimulated response elements to measure IRF transcription factor binding activity and (2) secreted embryonic alkaline phosphatase reporter gene under transcription control of an IFN-beta minimal promoter fused to 5 copies of the NFkB consensus transcriptional response element and 3 copies of the c-Rel binding site.
The resulting THP-1 cell line was further modified to incorporate 3 amino acid point mutations (H71R A230G Q293R). This modification of the native TMEM173 gene in THP-1 cells (HAQ) was designed to produce a cell reporter that expressed the most common allelic variant in the human population (THP-1 R232, available from InvivoGen). Alternatively, the TMEM173 gene was knocked out to provide a congenic control to counter-screen for compound activation that was independent of the STING protein (THP-1 STING KO).
Once cell lines were established, reporter assay protocols were developed and optimized to screen small molecule compounds for agonist activity. Assay optimization for efficacy and Z′ value included titration of the following parameters:
• 1. Cell pre-activation with PMA • 2. Cell seeding density • 3. DMSO tolerance • 4. Media selection • 5. FBS concentration • 6. Incubation time • 7. Co-Assessment of cell viability by CTG assay • 8. Appropriate HPE and ZPE controls • 9. Dose Response Titration
• 1. No pre-activation with PMA • 2. 5×10^4 cells/well in 96 well plate format • 3. <0.5% DMSO • 4. RPMI 1640+2.5 mg/ml glucose • 5. 10% FBS • 6. 14-18 hr incubation • 7. Cell Titer Glo reagent (Promega) following supernatant removal • 8. […] 8 point, 2 fold, duplicate starting at 150 μM

Sequence of human STING protein (140-379), WT (Q86WV6 140-379 H232R): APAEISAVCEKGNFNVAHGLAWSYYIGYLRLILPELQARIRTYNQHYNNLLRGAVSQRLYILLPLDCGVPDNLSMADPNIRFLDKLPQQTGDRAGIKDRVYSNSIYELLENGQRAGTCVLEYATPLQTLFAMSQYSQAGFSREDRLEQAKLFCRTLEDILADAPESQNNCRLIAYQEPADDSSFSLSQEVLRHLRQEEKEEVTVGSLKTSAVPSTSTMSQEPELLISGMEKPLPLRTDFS
Sequence of hSTING-R232 (aa140-379) (Q86WV6 140-379 H232R): as above

SMILES	WT_DSF_hSWAT Tm Shift (° C.) [1]	IC50 [2] [µM]	IC50 [3] [µM]	Emax [4] [%]	IC50 [4] [µM]
CN(C)c1c(Cl)ccc2c(=O)c3ccc(C(C)(C)C)cc3n(CC(=O)NS(C)(=O)=O)c12 [Compound 57]	D (“D” >7° C.)	< 20	< 20	> 50	< 50
Cc1ccccc1-c1c(Cl)ccc2c(=O)c3ccccc3n(CC(=O)O)c12 [Compound 59]	B (“B” = 0-2° C.)	> 300	20 to 100	5 to 25	50 to 100
O=C(O)Cn1c2ccccc2c(=O)c2ccc(Cl)c(-c3cccs3)c21 [Compound 62]	D (“D” >7° C.)	20 to 100	20 to 100	25 to 50	> 150
Cc1ccc2c(=O)c3ccc(Cl)c(N4CCCC4)c3n(CC(=O)O)c2c1 [Compound 64]	D (“D” >7° C.)	20 to 100	20 to 100	> 50	< 50
COc1ccccc1Nc1ccc2c(=O)c3ccc(Cl)c(N(C)C)c3n(CC(=O)O)c2c1 [Compound 90]	D (“D” >7° C.)		< 20	> 50	< 50
CN(C)c1c(Cl)ccc2c(=O)c3cc(Cl)c(Nc4ccccc4)cc3n(CC(=O)O)c12 [Compound 91]	D (“D” >7° C.)		< 20	> 50	< 50
CN(C)c1c(Cl)ccc2c(=O)c3ccc(Nc4c(F)cccc4F)cc3n(CC(=O)O)c12 [Compound 92]	D (“D” >7° C.)		< 20	> 50	< 50
